Laboratory results from PubChem BioAssay AID1963976 (Molecular Pharmacology Branch, DTP, NCI, 2024).

System: 435261-313-R-J1-PDC tumor spheroid viability
Assay: Anticancer human tumor 435261-313-R-J1-PDC patient-derived colon adenocarcinoma cell line growth inhibition [PI3K]
Conditions: spheroids with HUVEC and MSC; for IC50: curve of first compound; for viability, T/C: stronger effect = lower value
Method in brief: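 Combination activity was assessed by viability in multicellular tumor spheroids carrying HUVEC and MSC components. Agents were tested with PI3K inhibitors from a Cmax-based top dose (or 10 microM) downward in half-log increments.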

[1] = second compound 0.0316 µM, first compound 0.0316 µM
[2] = second compound 0.0316 µM, first compound 0.1 µM
[3] = second compound 0.0316 µM, first compound 0.316 µM
[4] = second compound 0.0316 µM, first compound 1 µM
[5] = second compound 0.0316 µM, first compound 3.16 µM
[6] = second compound 0.0316 µM, first compound 10 µM
[7] = second compound 0.1 µM, first compound 0.0316 µM
[8] = second compound 0.1 µM, first compound 0.1 µM
[9] = second compound 0.1 µM, first compound 0.316 µM
[10] = second compound 0.1 µM, first compound 1 µM
[11] = second compound 0.1 µM, first compound 3.16 µM
[12] = second compound 0.1 µM, first compound 10 µM
[13] = second compound 0.316 µM, first compound 0.0316 µM
[14] = second compound 0.316 µM, first compound 0.1 µM
[15] = second compound 0.316 µM, first compound 0.316 µM
[16] = second compound 0.316 µM, first compound 1 µM
[17] = second compound 0.316 µM, first compound 3.16 µM
[18] = second compound 0.316 µM, first compound 10 µM
[19] = second compound 1 µM, first compound 0.0316 µM
[20] = second compound 1 µM, first compound 0.1 µM
[21] = second compound 1 µM, first compound 0.316 µM
[22] = second compound 1 µM, first compound 1 µM
[23] = second compound 1 µM, first compound 3.16 µM
[24] = second compound 1 µM, first compound 10 µM
[25] = second compound 3.16 µM, first compound 0.0316 µM
[26] = second compound 3.16 µM, first compound 0.1 µM
[27] = second compound 3.16 µM, first compound 0.316 µM
[28] = second compound 3.16 µM, first compound 1 µM
[29] = second compound 3.16 µM, first compound 3.16 µM
[30] = second compound 3.16 µM, first compound 10 µM
[31] = second compound 10 µM, first compound 0.0316 µM
[32] = second compound 10 µM, first compound 0.1 µM
[33] = second compound 10 µM, first compound 0.316 µM
[34] = second compound 10 µM, first compound 1 µM
[35] = second compound 10 µM, first compound 3.16 µM
[36] = second compound 10 µM, first compound 10 µM
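Further: spheroids exposed to compounds for 7 days.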

Structure (SMILES): CNC(=O)c1ccc(N2C(=S)N(c3ccc(C#N)c(C(F)(F)F)c3)C(=O)C2(C)C)cc1F + CC(Nc1ncnc2nc[nH]c12)c1cc2cccc(Cl)c2c(=O)n1-c1ccccc1
- IC50 (second compound 0.0316 µM): > 10 µM
- IC50 (second compound 0.1 µM): > 10 µM
- IC50 (second compound 0.316 µM): > 10 µM
- IC50 (second compound 1 µM): > 10 µM
- IC50 (second compound 3.16 µM): > 10 µM
- IC50 (second compound 10 µM): > 10 µM
- viability, T/C [1]: 106%
- viability, T/C [2]: 70.5%
- viability, T/C [3]: 72.3%
- viability, T/C [4]: 82.8%
- viability, T/C [5]: 99.8%
- viability, T/C [6]: 74.8%
- viability, T/C [7]: 101%
- viability, T/C [8]: 90.6%
- viability, T/C [9]: 111%
- viability, T/C [10]: 121%
- viability, T/C [11]: 79.7%
- viability, T/C [12]: 65.7%
- viability, T/C [13]: 78.5%
- viability, T/C [14]: 90.4%
- viability, T/C [15]: 103%
- viability, T/C [16]: 79.8%
- viability, T/C [17]: 102%
- viability, T/C [18]: 81.8%
- viability, T/C [19]: 95.1%
- viability, T/C [20]: 97.1%
- viability, T/C [21]: 75.9%
- viability, T/C [22]: 86.5%
- viability, T/C [23]: 73.1%
- viability, T/C [24]: 66.4%
- viability, T/C [25]: 101%
- viability, T/C [26]: 91.6%
- viability, T/C [27]: 69.5%
- viability, T/C [28]: 64.5%
- viability, T/C [29]: 59.3%
- viability, T/C [30]: 67.3%
- viability, T/C [31]: 55%
- viability, T/C [32]: 44.7%
- viability, T/C [33]: 64%
- viability, T/C [34]: 68.6%
- viability, T/C [35]: 58.5%
- viability, T/C [36]: 39.8%

Structure (SMILES): C[C@@H](NC(=O)c1ncnc(N)c1Cl)c1ncc(C(=O)Nc2cc(C(F)(F)F)c(Cl)cn2)s1 + CC(Nc1ncnc2nc[nH]c12)c1cc2cccc(Cl)c2c(=O)n1-c1ccccc1
- IC50 (second compound 0.0316 µM): > 10 µM
- IC50 (second compound 0.1 µM): > 10 µM
- IC50 (second compound 0.316 µM): > 10 µM
- IC50 (second compound 1 µM): > 10 µM
- IC50 (second compound 3.16 µM): > 10 µM
- IC50 (second compound 10 µM): 3.52 µM
- viability, T/C [1]: 158%
- viability, T/C [2]: 182%
- viability, T/C [3]: 124%
- viability, T/C [4]: 145%
- viability, T/C [5]: 153%
- viability, T/C [6]: 118%
- viability, T/C [7]: 128%
- viability, T/C [8]: 172%
- viability, T/C [9]: 153%
- viability, T/C [10]: 144%
- viability, T/C [11]: 147%
- viability, T/C [12]: 104%
- viability, T/C [13]: 112%
- viability, T/C [14]: 150%
- viability, T/C [15]: 135%
- viability, T/C [16]: 145%
- viability, T/C [17]: 150%
- viability, T/C [18]: 64.8%
- viability, T/C [19]: 146%
- viability, T/C [20]: 146%
- viability, T/C [21]: 147%
- viability, T/C [22]: 175%
- viability, T/C [23]: 144%
- viability, T/C [24]: 96.1%
- viability, T/C [25]: 119%
- viability, T/C [26]: 141%
- viability, T/C [27]: 111%
- viability, T/C [28]: 148%
- viability, T/C [29]: 91.4%
- viability, T/C [30]: 44.6%
- viability, T/C [31]: 72.8%
- viability, T/C [32]: 131%
- viability, T/C [33]: 88.7%
- viability, T/C [34]: 93.2%
- viability, T/C [35]: 51%
- viability, T/C [36]: 39.9%
